{"source": "patent US20020161202A1", "about": "“Apo-2DcR” (Genentech, Inc., priority 1997, published 2002)", "key": {"[1]": {"test_system": "HeLa cells", "experiment": "Effect of preincubation with inhibitors on Apo-2L-induced apoptosis in HeLa cells (FACS)", "assay_type": "cell-based, human", "details": "Apo-2L 1 μg/ml, 5 hour incubation, FIG. 12C", "description": "The effects of a NF-κB inhibitor, ALLN (N-acetyl-Leu-Leu-norleucinal) and a […] inhibitor, cyclohexamide, were also tested. The HeLa cells (plated in 6-well dishes) were preincubated with PBS buffer, ALLN (Calbiochem) (40 μg/ml) or cyclohexamide (Sigma) (50 μg/ml) for 1 hour before addition of Apo-2L (1 μg/ml). After a 5 hour incubation, apoptosis was analyzed by FACS (see FIG. 12C)."}, "[2]": {"test_system": "HeLa cells", "experiment": "Apoptosis induction by Apo-2 in transfected HeLa cells, FACS analysis of phosphatydilserine exposure", "assay_type": "cell-based, human", "details": "inhibitor added at 200 μM at the time of transfection, FIG. 11C", "description": "(§1) Because death domains can function as oligomerization interfaces, over-expression of receptors that contain death domains may lead to activation of signaling in the absence of ligand [Frazer et al., supra, Nagata et al., supra]. To determine whether Apo-2 was capable of inducing cell death, human 293 cells or HeLa cells (ATCC CCL 2.2) were transiently transfected by calcium phosphate precipitation (293 cells) or electroporation (HeLa cells) with a pRK5 vector or pRK5-based plasmids encoding Apo-2 and/or CrmA. When applicable, the total amount of plasmid DNA was adjusted by adding vector DNA. Apoptosis was assessed 24 hours after transfection by morphology (FIG. 11A); DNA fragmentation (FIG. 11B); or by FACS analysis of phosphatydilserine exposure (FIG. 11C) as described in Marsters et al., Curr. Biol., 6:1669 (1996).\nFor samples assayed by FACS, the HeLa cells were co-transfected with pRK5-CD4 as a marker for transfection and apoptosis was determined in CD4-expressing cells; FADD was co-transfected with the Apo-2 plasmid; the data are means±SEM of at least three experiments, as described in Marsters et al., Curr. Biol., 6:1669 (1996). The caspase inhibitors, DEVD-fmk (Enzyme Systems) or z-VAD-fmk (Research Biochemicals Intl.) were added at 200 μM at the time of transfection."}, "[3]": {"test_system": "HeLa cells", "experiment": "Apo-2L-induced apoptosis in HeLa cells by FACS and its inhibition by soluble Apo-2 ECD", "assay_type": "cell-based, human", "description": "Soluble Apo-2L ([…], prepared as described in Pitti et al., supra) was pre-incubated for 1 hour at room temperature with PBS buffer or affinity-purified Apo-2 ECD (5 μg/ml) together with anti-Flag antibody (Sigma) (1 μg/ml) and added to HeLa cells. After a 5 hour incubation, the cells were analyzed for apoptosis by FACS (as above) (FIG. 11D)."}, "[4]": {"test_system": "Apo-2L", "sequence (P50591 39-281 limits assumed)": "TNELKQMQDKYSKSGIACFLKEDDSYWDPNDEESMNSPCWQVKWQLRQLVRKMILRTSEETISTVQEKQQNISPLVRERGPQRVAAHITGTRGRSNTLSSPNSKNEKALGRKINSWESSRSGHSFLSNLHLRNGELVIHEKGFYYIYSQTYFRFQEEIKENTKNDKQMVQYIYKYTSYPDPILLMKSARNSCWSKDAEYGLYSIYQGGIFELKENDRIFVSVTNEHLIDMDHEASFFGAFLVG", "sequence (O14763 56-184 partner limits assumed)": "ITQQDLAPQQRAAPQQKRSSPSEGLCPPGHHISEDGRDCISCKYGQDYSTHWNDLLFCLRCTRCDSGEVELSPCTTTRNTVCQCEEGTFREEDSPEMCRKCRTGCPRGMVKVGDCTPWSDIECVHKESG", "experiment": "Co-precipitation assay of Apo-2 ECD-Flag with poly-histidine-tagged Apo-2L", "assay_type": "binding", "details": "Apo-2 ECD-Flag supernatant with 5 μg poly-histidine-tagged soluble Apo-2L; FIG. 10", "description": "To determine whether Apo-2 and Apo-2L interact or associate with each other, supernatants from mock-transfected 293 cells or from 293 cells transfected with Apo-2 ECD-Flag (described in Example 6 above) (5 ml) were incubated with 5 μg poly-histidine-tagged soluble Apo-2L [Pitti et al., supra] for 30 minutes at room temperature and then analyzed for complex formation by a co-precipitation assay.\nThe samples were subjected to immunoprecipitation using 25 μl anti-Flag conjugated agarose beads (Sigma) or Nickel-conjugated agarose beads (Qiagen). After a 1.5 hour incubation at 4° C., the beads were spun down and washed four times in phosphate buffered saline (PBS). By using anti-Flag agarose, the Apo-2L was precipitated through the Flag-tagged Apo-2 ECD; by using Nickel-agarose, the Apo-2 ECD was precipitated through the His-tagged Apo-2L. The precipitated proteins were released by boiling the beads for 5 minutes in SDS-PAGE buffer, resolved by electrophoresis on 12% polyacrylamide gels, and then detected by immunoblot with anti-Apo-2L or anti-Flag antibody (2 μg/ml) as described in Marsters et al., J. Biol. Chem., (1997)."}, "[5]": {"molecular_target": "T1, Fas/Apo-1 ligand (Homo sapiens, UniProt P48023)", "T1 construct": "purchased Alexis Biochemicals", "T1 sequence (P48023 103-281 limits assumed)": "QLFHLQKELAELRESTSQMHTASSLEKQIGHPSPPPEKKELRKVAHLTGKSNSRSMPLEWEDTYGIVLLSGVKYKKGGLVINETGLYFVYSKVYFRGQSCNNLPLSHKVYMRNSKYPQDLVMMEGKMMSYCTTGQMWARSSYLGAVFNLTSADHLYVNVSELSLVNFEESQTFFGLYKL", "experiment": "BIACORE analysis of Apo-2 ECD", "assay_type": "binding", "description": "(§2) The binding interaction was further analyzed by purifying Apo-2 ECD from the transfected 293 cell supernatants with anti-Flag beads (see Example 6) and then analyzing the samples on a BIACORE™ instrument. The BIACORE™ analysis indicated a dissociation constant (Kd) of about 1 nM."}, "[6]": {"molecular_target": "TNF-alpha (Homo sapiens, UniProt P01375)", "sequence (P01375 77-233 limits assumed)": "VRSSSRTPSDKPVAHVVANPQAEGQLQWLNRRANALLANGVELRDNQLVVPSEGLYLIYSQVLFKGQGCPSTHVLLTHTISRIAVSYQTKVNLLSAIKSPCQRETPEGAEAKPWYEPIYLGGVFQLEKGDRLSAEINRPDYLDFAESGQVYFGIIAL", "experiment": "BIACORE analysis of Apo-2 ECD", "assay_type": "binding", "description": "as §2"}, "[7]": {"molecular_target": "T2, lymphotoxin-alpha (Homo sapiens, UniProt P01374)", "T2 sequence (P01374 35-205)": "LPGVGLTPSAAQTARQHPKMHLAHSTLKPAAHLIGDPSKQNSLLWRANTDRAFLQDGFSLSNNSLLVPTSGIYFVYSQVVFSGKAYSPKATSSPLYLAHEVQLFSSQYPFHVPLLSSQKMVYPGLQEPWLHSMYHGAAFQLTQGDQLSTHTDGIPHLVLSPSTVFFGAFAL", "experiment": "BIACORE analysis of Apo-2 ECD", "assay_type": "binding", "description": "as §2"}, "[8]": {"test_system": "Human 293 cells", "experiment": "Induction of apoptosis by Apo-2 transfection, morphology and DNA fragmentation", "assay_type": "cell-based", "details": "24 hours after transfection; morphology, DNA fragmentation; FIGS. 11A and 11B", "description": "as §1"}, "[9]": {"test_system": "NF-κB", "experiment": "NF-κB activation in HeLa cells transfected with receptor plasmids (electrophoretic mobility shift assay)", "assay_type": "cell-based, human", "details": "harvested 24 hours after transfection, FIG. 12A", "description": "HeLa cells were transfected with pRK5 expression plasmids encoding full-length native sequence Apo-2, DR4 or Apo-3 and harvested 24 hours after transfection. […] Immunol., 153:5274-5284 (1994)], alone or together with a 50-fold excess of unlabelled probe, or with an irrelevant ^32P-labelled synthetic oligonucleotide […] NO: 13). In some samples, antibody to p65/RelA subunits of NF-κB (1 μg/ml; Santa Cruz Biotechnology) was added. DNA binding was analyzed by an electrophoretic mobility shift assay as described by Hsu et al., supra; Marsters et al., supra, and MacKay et al., supra."}, "[10]": {"test_system": "NF-κB", "experiment": "NF-κB activity in HeLa cells treated with soluble ligand", "assay_type": "cell-based, human", "details": "1 μg/ml, FIG. 12B"}}, "note": "Where a SMILES comes first, the peptide text is derived from it. [ ]: non-standard residue; d: D form. The star is where a group is joined. Nle = CCCC[C@H](N)C(=O)O; Cbz = O=C(OCc1ccccc1)*; CH2F = FC*"}
{"compound": "CCCC[C@@H](C=O)NC(=O)[C@H](CC(C)C)NC(=O)[C@H](CC(C)C)NC(C)=O", "note": "[ALLN, N-acetyl-Leu-Leu-norleucinal] (Ac-Leu-Leu-[Nle]-aldehyde)", "values": [{"measurement": "level of Apo-2L-induced apoptosis", "setting": "[1]; HeLa cells preincubated 1 hour with ALLN 40 μg/ml", "value": "increased"}]}
{"compound": "COC(=O)CC[C@H](NC(=O)[C@H](CC(=O)OC)NC(=O)OCc1ccccc1)C(=O)N[C@H](C(=O)N[C@@H](CC(=O)OC)C(=O)CF)C(C)C", "note": "[DEVD-fmk]", "values": [{"measurement": "apoptosis induction by Apo-2", "setting": "[2]", "value": "blocked"}]}
{"compound": "C[C@@H]1C[C@@H]([C@H](O)CC2CC(=O)NC(=O)C2)C(=O)[C@@H](C)C1", "note": "[cyclohexamide]", "values": [{"measurement": "level of Apo-2L-induced apoptosis", "setting": "[1]; HeLa cells preincubated 1 hour with cyclohexamide 50 μg/ml", "value": "increased"}]}
{"compound": "COC(=O)C[C@H](NC(=O)[C@H](C)NC(=O)[C@@H](NC(=O)OCc1ccccc1)C(C)C)C(=O)CF", "note": "[z-VAD-fmk] (Cbz-Val-Ala-Asp(OMe)-CH2F)", "values": [{"measurement": "apoptosis induction by Apo-2", "setting": "[2]", "value": "blocked"}]}
{"compound": "Apo-2 ECD immunoadhesin: Apo-2 ECD (amino acids 1-184) fused to the hinge and Fc region of human immunoglobulin G1 heavy chain", "values": [{"measurement": "IC50", "setting": "[3]; dose-response analysis of inhibition of Apo-2L-induced apoptosis, HeLa cells, FIG. 11E, read-out: half-maximal inhibition", "value": "~0.3", "unit": "nM"}]}
{"compound": "Apo-2 ECD: soluble Apo-2 extracellular domain (amino acid residues 1-184) fused to a C-terminal Flag epitope tag", "values": [{"measurement": "complex formation with Apo-2L", "setting": "[4]", "value": "can associate with each other"}, {"measurement": "binding to Fas/Apo-1 ligand", "setting": "[5]", "value": "not capable of binding"}, {"measurement": "binding to TNF-alpha", "setting": "[6]", "value": "not capable of binding"}, {"measurement": "binding to lymphotoxin-alpha", "setting": "[7]", "value": "not capable of binding"}, {"measurement": "blocking of Apo-2L action (apoptosis)", "setting": "[3]; Apo-2 ECD 5 μg/ml with anti-Flag antibody 1 μg/ml, pre-incubated 1 hour with Apo-2L 0.5 μ/ml, HeLa cells, FIG. 11D", "value": "capable of blocking Apo-2L action"}]}
{"compound": "Apo-2: full-length native sequence human Apo-2, 411 amino acid type I transmembrane protein with death domain; expressed by transfection", "values": [{"measurement": "apoptosis of transfected 293 cells", "setting": "[8]", "value": "marked apoptosis"}, {"measurement": "NF-κB activation upon transfection", "setting": "[9]", "value": "significant NF-κB activation"}]}
{"compound": "Apo-2L: Apo-2 ligand (also referred to as TRAIL), TNF family cytokine; soluble form as in Pitti et al.", "values": [{"measurement": "apoptosis in HeLa cells", "setting": "[3]; soluble Apo-2L 0.5 μ/ml, 5 hour incubation, FACS, FIG. 11D", "value": "marked apoptosis"}, {"measurement": "NF-κB activation in treated HeLa cells", "setting": "[10]", "value": "significant NF-κB activation"}]}
{"compound": "DR4: TNF receptor family member with cytoplasmic death domain, receptor for Apo-2 ligand; expressed by transfection [reference compound]", "values": [{"measurement": "NF-κB activation upon transfection", "setting": "[9]", "value": "significant NF-κB activation"}]}
